The text below walks through data of patent US11464770B2, “Anticancer pharmaceutical composition” (NATIONAL CANCER CENTER, priority 2016, dated 2022).

Assay [1] deals with bladder cancer cell lines. The assay can be described thus: Cell based assay, cell viability (CellTiter-Glo), bladder cancer cell lines. As to conditions: 72 hours treatment, 0 to 2 μM, CellTiter-Glo. As to the method: (§1) Commercially available bladder cancer, prostate cancer, lung cancer, breast cancer, blood cancer, pancreatic cancer, colorectal cancer, brain cancer, neuroblastoma, melanoma, liver cancer, cervical carcinoma, ovarian cancer, renal cancer, and papilloma cell lines were each treated with trypsin-EDTA and cultured, followed by being seeded in each well of a 96 well plate. After 24 hours of treatment at constant temperature, the respective cells were treated with the candidate compound so that a final concentration became 0 to 2 μM. The treated cells were additionally cultured for 72 hours, and cell viability was measured by using an ATP detection method (CellTiter-Glo® Luminescent Cell Viability Assay, Promega).
On the technique in general: Cellular ATP, detected with luciferase, serves as a proxy for viable cell number.

Assay [2] has as its system prostate cancer cell lines (e.g. DU145/TXR). The assay is described as follows: Cell based assay, cell viability (CellTiter-Glo), prostate cancer cell lines. The following applies: Homo sapiens, 72 hours treatment, final concentration 0 to 2 μM. As to the method: as §1
For another assay, the system named is neuroblastoma cell lines. The assay is described as follows: Cell based assay, cell viability (CellTiter-Glo), neuroblastoma cell lines. As to conditions: Homo sapiens; SH-SY5Y cell line. As for the experimental part: as §1
A further assay concerns liver cancer cell lines. The assay can be described thus: Cell based assay, cell viability (CellTiter-Glo), liver cancer cell lines. The following applies: Homo sapiens, SK-HEP1; SK-HEP-1 cell line. As for the experimental part: as §1
Assay [3] relates to ovarian cancer cell lines. The assay is described as follows: Cell based assay, cell viability (CellTiter-Glo), ovarian cancer cell lines. The following applies: Homo sapiens; OVCAR-3 cells. As to the method: as §1
In assay [4] the test system is RT4: human urinary bladder transitional cell papilloma. The assay can be described thus: Cell based assay, cytotoxicity in RT4 papilloma cells (selectivity). As to conditions: Homo sapiens, RT-4; RT4 cells. As for the experimental part:
Commercially available bladder cancer, prostate cancer, lung cancer, breast cancer, blood cancer, pancreatic cancer, colorectal cancer, brain cancer, neuroblastoma, melanoma, liver cancer, cervical carcinoma, ovarian cancer, renal cancer, and papilloma cell lines were each treated with trypsin-EDTA and cultured, followed by being seeded in each well of a 96 well plate. […] The treated cells were additionally cultured for 72 hours, and cell viability was measured by using an ATP detection method (CellTiter-Glo® Luminescent Cell Viability Assay, Promega).

The mark [5] stands for this setting: 253J cells, read-out: IC50, bladder cancer cell line 253J.
[6] abbreviates: 5637 cells, read-out: IC50, bladder cancer cell line 5637.
Setting [7] is: Homo sapiens, T-24, T24 cells, read-out: IC50, bladder cancer cell line T24.
Setting [8] is: Homo sapiens, UMUC3, UM-UC-3 cells, read-out: IC50, bladder cancer cell line UM-UC-3.
The mark [9] stands for this setting: Homo sapiens, J82 cells, read-out: IC50, bladder cancer cell line J82.
Setting [10] is: Homo sapiens, KU-19-19 cells, read-out: IC50, bladder cancer cell line KU-19-19.
[11] abbreviates: MBT-2 cells, read-out: IC50, bladder cancer cell line MBT-2.
[12] abbreviates: CWR22 cells, read-out: IC50, prostate cancer cell line CWR22.
Where [13] appears, read: DU-145, DU145/TXR cells, read-out: IC50, prostate cancer cell line DU145/TXR.
Where [14] appears, read: DU-145, DU145 cells, read-out: IC50, prostate cancer cell line DU145.
[15] abbreviates: LNcap cells, read-out: IC50, prostate cancer cell line LNcap.
Where [16] appears, read: PC-3 cells, read-out: IC50, prostate cancer cell line PC-3.

pIC50: −log10 of the molar value. Where two headings read alike, the source gives them in different places.

Turning to `CC(=O)c1c([S+]([O-])C(C)C)[nH]c2c(Br)ccc(Cl)c2c1=O` (stereo not drawn) [Compound 25, 3-acetyl-8-bromo-5-chloro-2-(isopropylsulfinyl)quinolin-4(1H)-one], the pIC50 in assay [1] (setting [5]), in assay [1] (setting [6]), in assay [1] (setting [7]), in assay [1] (setting [8]), in assay [1] (setting [9]) and in assay [1] (setting [10]) was below 5.70 in each case. The pIC50 in assay [1] (setting [11]), in assay [2] (setting [12]), in assay [2] (setting [13]), in assay [2] (setting [14]), in assay [2] (setting [15]) and in assay [2] (setting [16]) was below 5.70 throughout. Besides, the pIC50 was below 5.70 with neuroblastoma cell lines, below 5.70 in the assay on liver cancer cell lines, below 5.70 in assay [3] and below 5.00 in assay [4].

In the case of `CC(=O)c1c([S+]([O-])C(C)c2ccccc2)[nH]c2c(Br)ccc(Cl)c2c1=O` (stereo not drawn) [Compound 26, 3-acetyl-8-bromo-5-chloro-2-((1-phenylethyl)sulfinyl)quinolin-4(1H)-one], the pIC50 is below 5.70 in assay [1] (setting [5]); 5.80 in assay [1] (setting [6]); below 5.70 in assay [1] (setting [7]); below 5.70 in assay [1] (setting [9]); below 5.70 in assay [2] (setting [12]); below 5.70 in assay [2] (setting [13]). Also, the pIC50 in assay [2] (setting [14]) was below 5.70; in assay [2] (setting [15]), below 5.70; in the assay on neuroblastoma cell lines it was below 5.70; in the assay on liver cancer cell lines, below 5.70; in assay [3], below 5.70; in assay [4] it was below 5.00.

For `CC(=O)c1c(SCc2cccc(C#N)c2)[nH]c2c(Br)ccc(Cl)c2c1=O` [Compound 27, 3-(((3-acetyl-8-bromo-5-chloro-4-oxo-1,4-dihydroquinolin-2-yl)thio)methyl)benzonitrile], the pIC50 in assay [1] (setting [5]), in assay [1] (setting [6]), in assay [1] (setting [7]), in assay [1] (setting [8]), in assay [1] (setting [9]) and in assay [1] (setting [10]) was below 5.70 throughout. Moreover, the pIC50 in assay [1] (setting [11]), in assay [2] (setting [12]), in assay [2] (setting [13]), in assay [2] (setting [14]), in assay [2] (setting [15]) and in assay [2] (setting [16]) was below 5.70 throughout. Moreover, the pIC50 in the assay with neuroblastoma cell lines was below 5.70; in the assay with liver cancer cell lines it was below 5.70; in assay [3] it was below 5.70; in assay [4] it was below 5.00.

For the compound `CC(=O)c1c([S+]([O-])Cc2cccc(C#N)c2)[nH]c2c(Br)ccc(Cl)c2c1=O` (stereo not drawn) [Compound 28, 3-(((3-acetyl-8-bromo-5-chloro-4-oxo-1,4-dihydroquinolin-2-yl)sulfinyl)methyl)benzonitrile], the pIC50 in assay [1] (setting [6]) was 5.99; in assay [1] (setting [7]) it was 6.09; in assay [1] (setting [9]), 5.88; in assay [2] (setting [12]), 5.97; in assay [2] (setting [13]) it was 6.00; in assay [2] (setting [14]) it was 5.89. Moreover, the pIC50 is 5.87 in assay [2] (setting [15]); 5.94 in assay [2] (setting [16]); below 5.70 with neuroblastoma cell lines; 6.12 in the assay with liver cancer cell lines; 6.16 in assay [3]; below 5.00 in assay [4].

For `CC(=O)c1c(SCc2ccc(F)c(Cl)c2)[nH]c2c(Br)ccc(Cl)c2c1=O` [Compound 30, 3-acetyl-8-bromo-5-chloro-2-((3-chloro-4-fluorobenzyl)thio)quinolin-4(1H)-one], the pIC50 in assay [1] (setting [5]), in assay [1] (setting [6]), in assay [1] (setting [7]), in assay [1] (setting [8]), in assay [1] (setting [9]) and in assay [1] (setting [10]) was below 5.70 in each case. In addition, the pIC50 in assay [1] (setting [11]), in assay [2] (setting [12]), in assay [2] (setting [13]), in assay [2] (setting [14]), in assay [2] (setting [15]) and in assay [2] (setting [16]) was below 5.70 throughout. Moreover, the pIC50 in the assay with neuroblastoma cell lines was below 5.70; with liver cancer cell lines, below 5.70; in assay [3], below 5.70; in assay [4], below 5.00.

For `CC(=O)c1c(SCc2ccc([N+](=O)[O-])cc2)[nH]c2c(Br)ccc(Cl)c2c1=O` [Compound 32, 3-acetyl-8-bromo-5-chloro-2-((4-nitrobenzyl)thio)quinolin-4(1H)-one], the pIC50 in assay [1] (setting [5]), in assay [1] (setting [6]), in assay [1] (setting [7]), in assay [1] (setting [8]), in assay [1] (setting [9]) and in assay [1] (setting [10]) was below 5.70 in each case. Besides, the pIC50 in assay [1] (setting [11]), in assay [2] (setting [12]), in assay [2] (setting [13]), in assay [2] (setting [14]), in assay [2] (setting [15]) and in assay [2] (setting [16]) was below 5.70 each time. Further, the pIC50 in the assay with neuroblastoma cell lines was below 5.70; with liver cancer cell lines it was below 5.70; in assay [3], below 5.70; in assay [4] it was below 5.00.

As for `CSc1c(C(C)=O)c(=O)c2c(Cl)ccc(Br)c2n1S(C)(=O)=O` [Compound 35, 3-acetyl-8-bromo-5-chloro-1-(methylsulfonyl)-2-(methylthio)quinolin-4(1H)-one], the pIC50 in assay [1] (setting [5]), in assay [1] (setting [6]), in assay [1] (setting [7]), in assay [1] (setting [8]), in assay [1] (setting [9]) and in assay [1] (setting [10]) was below 5.70 each time. Besides, the pIC50 in assay [1] (setting [11]), in assay [2] (setting [12]), in assay [2] (setting [13]), in assay [2] (setting [14]), in assay [2] (setting [15]) and in assay [2] (setting [16]) was below 5.70 throughout. In addition, the pIC50 in the assay with neuroblastoma cell lines is below 5.70; in the assay on liver cancer cell lines it was below 5.70; in assay [3], below 5.70; in assay [4] it was below 5.00.

Consider `CC(=O)c1c([S+](C)[O-])n(S(=O)(=O)C(F)(F)F)c2c(Br)ccc(Cl)c2c1=O` (stereo not drawn) [Compound 36, 3-acetyl-8-bromo-5-chloro-2-(methylsulfinyl)-1-((trifluoromethyl)sulfonyl)quinolin-4(1H)-one], for which the pIC50 in assay [1] (setting [5]), in assay [1] (setting [6]), in assay [1] (setting [7]), in assay [1] (setting [8]), in assay [1] (setting [9]) and in assay [1] (setting [10]) was below 5.70 throughout. Also, the pIC50 was 5.89 in assay [1] (setting [11]); below 5.70 in assay [2] (setting [12]); below 5.70 in assay [2] (setting [13]); below 5.70 in assay [2] (setting [14]); below 5.70 in assay [2] (setting [15]); below 5.70 in assay [2] (setting [16]). Also, the pIC50 in the assay on neuroblastoma cell lines was below 5.70; with liver cancer cell lines it was below 5.70; in assay [3], below 5.70; in assay [4], below 5.00.

As to `CSc1c(C(C)=O)c(=O)c2c(Cl)ccc(Br)c2n1S(=O)(=O)c1ccc(Cl)cc1` [Compound 37, 3-acetyl-8-bromo-5-chloro-1-((4-chlorophenyl)sulfonyl)-2-(methylthio)quinolin-4(1H)-one], the pIC50 in assay [1] (setting [5]), in assay [1] (setting [6]), in assay [1] (setting [7]), in assay [1] (setting [8]), in assay [1] (setting [9]) and in assay [1] (setting [10]) was below 5.70 throughout. For the same compound, the pIC50 in assay [1] (setting [11]), in assay [2] (setting [12]), in assay [2] (setting [13]), in assay [2] (setting [14]), in assay [2] (setting [15]) and in assay [2] (setting [16]) was below 5.70 in each case. In addition, the pIC50 with neuroblastoma cell lines was below 5.70; with liver cancer cell lines, below 5.70; in assay [3], below 5.70; in assay [4], below 5.00.

As for `CSc1c(C(C)=O)c(=O)c2c(Cl)ccc(Br)c2n1S(=O)(=O)c1ccc([N+](=O)[O-])cc1` [Compound 38, 3-acetyl-8-bromo-5-chloro-2-(methylthio)-1-((4-nitrophenyl)sulfonyl)quinolin-4(1H)-one], the pIC50 in assay [1] (setting [5]), in assay [1] (setting [6]), in assay [1] (setting [7]), in assay [1] (setting [8]), in assay [1] (setting [9]) and in assay [1] (setting [10]) was below 5.70 in each case. Besides, the pIC50 in assay [1] (setting [11]), in assay [2] (setting [12]), in assay [2] (setting [13]), in assay [2] (setting [14]), in assay [2] (setting [15]) and in assay [2] (setting [16]) was below 5.70 throughout. The pIC50 is below 5.70 with neuroblastoma cell lines, below 5.70 in the assay with liver cancer cell lines, below 5.70 in assay [3] and below 5.00 in assay [4].

On to `CCS(=O)(=O)n1c([S+](C)[O-])c(C(C)=O)c(=O)c2c(Cl)ccc(Br)c21` (stereo not drawn) [Compound 39, 3-acetyl-8-bromo-5-chloro-1-(ethylsulfonyl)-2-(methylsulfinyl)quinolin-4(1H)-one], for which the pIC50 in assay [1] (setting [5]), in assay [1] (setting [6]), in assay [1] (setting [7]), in assay [1] (setting [8]), in assay [1] (setting [9]) and in assay [1] (setting [10]) was below 5.70 in each case. Also, the pIC50 in assay [1] (setting [11]), in assay [2] (setting [12]), in assay [2] (setting [13]), in assay [2] (setting [14]), in assay [2] (setting [15]) and in assay [2] (setting [16]) was below 5.70 each time. Also, the pIC50 in the assay with neuroblastoma cell lines is below 5.70; in the assay with liver cancer cell lines it was below 5.70; in assay [3], below 5.70; in assay [4], below 5.00.
